These results are taken from BindingDB's records for doi:10.1016/s0960-894x(00)00662-4 (Dupont Pharmaceuticals, 2001).

This assay in a line: Compound was evaluated for its ability to inhibit the NNRTI HIV-1 enzyme by 50% using enzyme assay.

The term IC50 denotes the point on the concentration scale where inhibition reaches its midpoint. On to `O=C1Nc2ccc(Cl)cc2[C@@](C#CC2CC2)(C(F)(F)F)N1`, for which the IC50 was 0.031 µM.
